Assays:
LTED cells = experiment: Growth of LTED cells (cell number); assay type: cell-based, human
Method: FIG. 3 represents the effect of FTS on the growth of MCF-7, LTED, and MCF-10A cells. Sixty thousand cells were plated into each well of 6-well plates. Two days later, the cells were treated in triplicate for five days with FTS at indicated concentrations. The results (mean±S.E.) are expressed as percentage of the vehicle control.
FIG. 4 represents the effect of FTS on E2 stimulated growth of MCF-7 and LTED cells. Thirty thousand cells were plated into each well of 6-well plates. Two days later, the cells were re-fed with IMEM containing 5% DCC-FBS. After another two days, cells were treated in triplicate with estradiol (10^−10 M) plus various concentrations of FTS for five days. In LTED cells, fulvestrant (10^−9 M) was included in all wells to block the effect of residual estrogen in the culture. The results (mean±S.E.) are expressed as percentage of cell number from the wells containing E2.
The effect of FTS on growth of breast cancer cells was examined in two different cell lines: MCF-7 wild type cells which represent a model for untreated breast cancer and LTED cells as a model of cells adapting to endocrine treatment. Cells were grown in their culture media and treated with FTS for five days. […] The effect of FTS on E2-stimulated growth of MCF-7 and LTED cells was the examined. […]

[1] = tested on: ERK1/2, Akt, p70S6K, PHAS-1 phosphorylation in LTED cells; experiment: EGF induced activation of MAP kinase, PI3 kinase and mTOR in LTED cells (Western); assay type: cell-based, human
Excerpt: FIG. 8 represents data showing the effect of FTS on EGF induced activation of MAP kinase, PI3 kinase, and mTOR in LTED cells. […] Cells were then harvested and cell lysate prepared. Phosphorylated and total kinases were detected by Western analysis using specific antibodies.
The effects of the specific growth factors, EFG and IGF-1 were also examined. Serum contains multiple growth factors that activate MAP kinase and PI3 kinase either by recruitment and activation of the common mediator Ras (such as EGF) or through a direct mechanism (such as IGF-1). To further explore the site of action of FTS, EGF-induced activation of MAPK and PI3 kinase was first examined. Specific inhibitors for PI3 kinase and mammalian target of rapamycin (mTOR) were included for comparison. […] One-hour treatment was chosen as the time point allowing most efficient comparisons among molecules.

JNK = JNK activation in LTED cells cultured in vitro; assay type: cell-based, human
Excerpt: FIGS. 17A & 17B represent data showing the effects of FTS on JNK activation in LETD cells cultured in vitro.
FIGS. 17A & 17B represent data showing the effects of FTS on JNK activation in LTED cells cultured in vitro. […] JNK activation has been reported to be associated with apoptosis.

Solubility in buffer = assay type: physicochemical
mTOR-mLST8 = experiment: Coimmunoprecipitation of mLST8 with mTOR, compound added to cell extracts; assay type: binding; details: only at the highest concentrations investigated
Method: FIGS. 13A & 13B represent data showing FTS promotes raptor dissociation and inhibits mTOR activity in cell extracts. 293T cells were transfected with pcDNA3 alone (Vec.) or with a combination of pcDNA3AU1-mTOR, pcDNA33HA-Raptor, and pcDNA33HA-mLST8. Extracts of the cells were incubated with increasing concentrations of FTS before AU1-mTOR was immunoprecipated. Samples of the immune complexes were incubated with [γ-^32P]ATP and recombinant [His^6]PHAS-I, then subjected to SDS-PAGE and transferred to an immobilon membrane. After obtaining a phosphorimage of the membrane to detect ^32P-PHAS-I, the membrane was immunoblotted with PThr^36/45 antibodies. […]
FIGS. 14A & 14B represent data showing the relative effects of increasing concentrations of FTS and GTS on mTOR activity and the association of mTOR and raptor. Samples of extracts from 293T cells overexpressing AU1-mTOR, HA-raptor, and HA-mLST8 were incubated for 1 h with increasing concentrations of FTS (●, ▴, ▪) or GTS (∘, Δ, □) before immunoprecipitations were conducted with anti-AU1 antibodies. mTOR kinase activity (●, ∘) was determined by measuring ^32P incorporation into [His^6]PHAS-I in immune complex kinases assays performed with [γ-^32P]ATP (see FIG. 14A). The relative amounts of HA-raptor (▴, Δ) and HA-mLST8 (▪, □) that coimmunoprecipitated with AU1-mTOR were determined after immunoblotting with anti-HA antibodies (see FIG. 14B). […]

[2] = pretreatment FTS 1 h, LY 294002 or rapamycin 3 h, EGF 1 μg/ml 1 h

## CC(C)=CCC/C(C)=C/CC/C(C)=C/CSc1ccccc1C(=O)O [FTS, farnesylthiosalicylic acid]
LTED cells; E2 10^−10 M in the presence of fulvestrant 10^−9 M
  E2-stimulated growth: inhibited
LTED cells; culture media, five days
  basal growth: dose-dependently inhibited
[1]; EGF or IGF-1
  growth factor induced Thr229 phosphorylation of p70 S6K: very limited, if any, inhibition
[1]; FTS even at 50 μM, EGF 1 μg/ml 1 h
  EGF-induced phosphorylation of p70S6K at Thr389: completely abolished
[1]; [2]
  EGF-induced ERK1/2 MAP kinase phosphorylation: did not inhibit
  EGF-induced phosphorylation of Akt at Ser473: neither FTS nor rapamycin blocked
[1]; serum starved 24 h, EGF
  PHAS-1 Ser65 phosphorylation: dose-dependently inhibited
JNK
  JNK activation: stimulates JNK activation
Solubility in buffer
  solubility in buffer: only limited solubility
mTOR-mLST8
  amounts of transfected and endogenous mLST8 that coimmunoprecipitated with mTOR: modestly decreased
